# Source: patent US20180327367A1, “MACROCYCLIC BROAD SPECTRUM ANTIBIOTICS” (priority 2015, published 2018)
# Read-outs that look alike come from different tables or passages of the source.
# How the values were obtained:
# Type in all cases: cell-based
# [1] = test system: Methicillin Resistant Staphylococcus aureus strain USA 300, NRS384; experiment: Minimum inhibitory concentration, broth micro-dilution (CLSI), S. aureus; conditions: Staphylococcus aureus, MRSA / NRS 384 / USA300, 22 h, 35° C., 22 hours
# Outline: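 Ten-point 2-fold series began at 4 μg/mL in protocol 2 and 0.5 μg/mL in protocol 3, in cation-adjusted MHB plus 0.002% Tween-80. Bacteria added to OD600 0.0005 final and incubated at 35° C for 22 hours per CLSI microdilution.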
# [2] = test system: Escherichia coli MC4100 harboring the IMP4213 (E. coli IMP); experiment: microbe, parasite or virus in culture; conditions: Escherichia coli, 22 h, read-out: MIC (μg/mL) E. coli IMP, E. coli MC4100 IMP4213, increased outer-membrane permeability; 35° C., 22 hours
# Outline: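 Colonies grown 20 hours at 35° C were suspended in cation-adjusted Mueller Hinton Broth with 0.002% Tween-80. Cells were then added to 2-fold compound dilutions starting at 4 or 0.5 μg/mL, at OD600 0.0005.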
# [3] = test system: Escherichia coli ATCC 25922; experiment: Minimum inhibitory concentration, broth micro-dilution (CLSI), E. coli; conditions: Escherichia coli, ATCC25922, 22 h, 35° C., 22 hours
# [4] = MRSA USA 300 NRS384, read-out: MIC (μg/mL) S. aureus
# [5] = E. coli ATCC 25922, read-out: MIC (μg/mL) E. coli
# [6] = read-out: MIC (μg/mL) S. aureus, MRSA USA 300 NRS384
# [7] = read-out: MIC (μg/mL) E. coli, E. coli ATCC 25922
SMILES,"MIC [1, 4]",MIC [2],"MIC [3, 5]","MIC [1, 6]","MIC [3, 7]"
CCCCCCc1ccc(C(=O)N[C@@H](Cc2ccncc2)C(=O)N(C)[C@@H]2C(=O)N[C@@H](C)C(=O)N[C@H](C(=O)NCC#N)Cc3ccc(OCCN)c(c3)-c3cc2ccc3OCCN)c(C)c1 [Compound 479],0.25 µg/mL,0.5 µg/mL,32 µg/mL,–,–
CCCCCCc1ccc(C(=O)N[C@@H](CCNC(=N)N)C(=O)N(C)[C@@H]2C(=O)N[C@@H](C)C(=O)N[C@H](C(=O)NCC#N)Cc3ccc(OCCN)c(c3)-c3cc2ccc3OCCN)c(C)c1 [Compound 485],0.063 µg/mL,0.031 µg/mL,2 µg/mL,–,–
CCCCCCCCc1ccc2c(=O)n([C@@H](CCN)C(=O)N(C)[C@@H]3C(=O)N[C@@H](C)C(=O)N[C@H](C(=O)NCC#N)Cc4ccc(OCCN)c(c4)-c4cc3ccc4OCCN)cnc2c1 [Compound 486],–,0.13 µg/mL,–,0.094 µg/mL,3 µg/mL
CCCCCCCCc1ccc2c(=O)n([C@@H](CCN)C(=O)N(C)[C@@H]3C(=O)N[C@@H](C)C(=O)N[C@H](C(=O)NCC#N)Cc4ccc(OCCN)c(c4)-c4cc3ccc4OCCN)c(C)nc2c1 [Compound 487],0.5 µg/mL,0.25 µg/mL,8 µg/mL,–,–
CCCCCCCCc1ccc2c(c1)CN([C@@H](CCN)C(=O)N(C)[C@@H]1C(=O)N[C@@H](C)C(=O)N[C@H](C(=O)NCC#N)Cc3ccc(OCCN)c(c3)-c3cc1ccc3OCCN)C2=O [Compound 488],–,0.13 µg/mL,–,0.094 µg/mL,4 µg/mL
CCCCCCCCc1ccc2c(c1)C(C)N([C@@H](CCN)C(=O)N(C)[C@@H]1C(=O)N[C@@H](C)C(=O)N[C@H](C(=O)NCC#N)Cc3ccc(OCCN)c(c3)-c3cc1ccc3OCCN)C2=O (stereo partly drawn) [Compound 489],0.19 µg/mL,0.25 µg/mL,8 µg/mL,–,–
C[C@@H]1NC(=O)[C@@H](N(C)C(=O)[C@H](CCN)NC(=O)CCCc2ccc(F)cc2)c2ccc(OCCN)c(c2)-c2cc(ccc2OCCN)C[C@@H](C(=O)NCC#N)NC1=O [Compound 493],3 µg/mL,2 µg/mL,> 64 µg/mL,–,–
CCCCCCc1ccc(C(=O)N[C@@H]2CN[C@H](C(=O)N(C)[C@@H]3C(=O)N[C@@H](C)C(=O)N[C@H](C(=O)NCC#N)Cc4ccc(OCCN)c(c4)-c4cc3ccc4OCCN)C2)c(C)c1 [Compound 498],0.5 µg/mL,1 µg/mL,16 µg/mL,–,–
CCCCCCCc1ccc(C(=O)N[C@@H](CCN)C(=O)N(C)[C@@H]2C(=O)N[C@@H](C)C(=O)N[C@H](C(=O)NCC#N)Cc3ccc(OCCNC(=O)CN)c(c3)-c3cc2ccc3OCCNC(=O)CN)c(C)c1 [Compound 499],0.063 µg/mL,0.023 µg/mL,0.5 µg/mL,–,–
CCCCCCCCc1ccc(C(=O)N[C@@H](CCC(=O)NC)C(=O)N(C)[C@@H]2C(=O)N[C@@H](C)C(=O)N[C@H](C(=O)NCC#N)Cc3ccc(OCCN)c(c3)-c3cc2ccc3OCCN)c(C)c1 [Compound 501],0.38 µg/mL,> 0.13 µg/mL,16 µg/mL,–,–
Cc1nc(-c2ccc(CC(C)C)cc2)ccc1C(=O)N[C@@H](CCN)C(=O)N(C)[C@@H]1C(=O)N[C@@H](C)C(=O)N[C@H](C(=O)NCC#N)Cc2ccc(O)c(c2)-c2cc1ccc2OCCN [Compound 502],0.063 µg/mL,0.003 µg/mL,0.25 µg/mL,–,–
CCCCc1ccc(-c2ncc(C(=O)N[C@@H](CCN)C(=O)N(C)[C@@H]3C(=O)N[C@@H](C)C(=O)N[C@H](C(=O)NCC#N)Cc4ccc(O)c(c4)-c4cc3ccc4OCCN)c(C)n2)cc1 [Compound 503],0.031 µg/mL,0.002 µg/mL,0.13 µg/mL,–,–
CCCCCCc1ccc(-c2ncc(C(=O)N[C@@H](CCN)C(=O)N(C)[C@@H]3C(=O)N[C@@H](C)C(=O)N[C@H](C(=O)NCC#N)Cc4ccc(O)c(c4)-c4cc3ccc4OCCN)c(C)n2)cc1 [Compound 504],0.094 µg/mL,0.016 µg/mL,0.25 µg/mL,–,–
CCc1ccc(-c2ncc(C(=O)N[C@@H](CCN)C(=O)N(C)[C@@H]3C(=O)N[C@@H](C)C(=O)N[C@H](C(=O)NCC#N)Cc4ccc(O)c(c4)-c4cc3ccc4OCCN)c(C)n2)cc1 [Compound 505],0.25 µg/mL,0.016 µg/mL,2 µg/mL,–,–
CCCCCCc1ccc(-c2ncc(C(=O)N[C@@H](CCN)C(=O)N(C)[C@@H]3C(=O)N[C@@H](C)C(=O)N[C@H](C(=O)NCC#N)Cc4ccc(OCCN)c(c4)-c4cc3ccc4OCCN)n2C)cc1 [Compound 507],0.031 µg/mL,0.016 µg/mL,0.75 µg/mL,–,–
CCCCc1ccc(C(=O)N[C@@H](CCCCN)CC(=O)N(C)[C@@H]2C(=O)N[C@@H](C)C(=O)N[C@H](C(=O)NCC#N)Cc3ccc(OCCN)c(c3)-c3cc2ccc3OCCN)c(C)c1 [Compound 509],3 µg/mL,> 4 µg/mL,> 64 µg/mL,–,–
